Test results: patent publication US20230256039A1, “COMPOSITIONS AND METHODS TO INCREASE PRODUCTION OF HYDROXYTYROSOL” (priority 2022, published 2023)

Key:
[1] = test system: Lactobacillus pentosus strain OL79; experiment: Minimum inhibitory concentration (MIC) antibiotic susceptibility of strain OL79; format: cell-based; settings: MIC of antibiotic against strain OL79 versus EFSA cutoff
[2] = test system: Lactobacillus pentosus strain OL79; settings: MIC cutoff values for Lactobacillus pentosus strain OL79; cited from earlier work

Compound | Susceptibility [1] | EFSA Break Point [2] [mg/L]
Gentamycin | sensitive | 16
CC1(C)S[C@@H]2[C@H](NC(=O)[C@H](N)c3ccccc3)C(=O)N2[C@H]1C(=O)O [Ampicillin] | sensitive | 2
O=C(N[C@H](CO)[C@H](O)c1ccc([N+](=O)[O-])cc1)C(Cl)Cl [Chloramphenicol] | sensitive | 8
CC[C@H]1OC(=O)[C@H](C)[C@@H](O[C@H]2C[C@@](C)(OC)[C@@H](O)[C@H](C)O2)[C@H](C)[C@@H](O[C@@H]2O[C@H](C)C[C@H](N(C)C)[C@H]2O)[C@](C)(O)C[C@@H](C)C(=O)[C@H](C)[C@@H](O)[C@]1(C)O [Erythromycin] | sensitive | 1
